Where a name gives a salt, the structure may show the parent alone.
Tests used:
[1] = biological target: T1, human recombinant LTA4 hydrolase (Homo sapiens, UniProt P09960); test: Inhibition of the aminopeptidase activity of recombinant LTA4 hydrolase (fluorimetric, Ala-AMC substrate); type: biochemical; settings: in vitro
T1 construct: made in house; host or cells: E. coli JM109
T1 sequence (P09960 1-611): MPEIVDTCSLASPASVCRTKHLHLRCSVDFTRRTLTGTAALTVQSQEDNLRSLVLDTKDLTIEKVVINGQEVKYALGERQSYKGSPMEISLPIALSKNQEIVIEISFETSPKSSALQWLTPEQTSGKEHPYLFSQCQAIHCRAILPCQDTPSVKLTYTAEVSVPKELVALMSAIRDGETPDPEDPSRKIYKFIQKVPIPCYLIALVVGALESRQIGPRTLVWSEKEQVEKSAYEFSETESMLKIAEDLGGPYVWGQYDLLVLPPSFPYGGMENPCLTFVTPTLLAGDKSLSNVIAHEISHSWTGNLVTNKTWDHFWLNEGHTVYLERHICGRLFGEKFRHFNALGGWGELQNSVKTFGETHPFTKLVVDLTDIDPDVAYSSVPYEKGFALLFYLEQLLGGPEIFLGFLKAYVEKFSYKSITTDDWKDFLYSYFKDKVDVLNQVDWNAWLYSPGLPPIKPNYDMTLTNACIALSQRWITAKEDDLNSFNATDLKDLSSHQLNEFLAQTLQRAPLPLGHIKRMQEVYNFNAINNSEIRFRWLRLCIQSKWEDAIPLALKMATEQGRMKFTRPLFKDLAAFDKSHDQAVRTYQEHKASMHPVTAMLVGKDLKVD
Experimental: The compounds were tested using human recombinant LTA4 hydrolase (Minami et al., FEBS Letters, 1988, 229: 279). The LTA4 hydrolase expressed by E. coli JM109 is purified mainly according to Minami et al., (J. Biol. Chem., 1987, 262: 13873).
The inhibition of the aminopeptidase activity of the enzyme is measured by means of a fluorimetric method in 96-well microplates. The recombinant enzyme (0.5 μg in 50 μl of 50 mM Tris-HCl pH 7.4) is preincubated for 10 minutes at 37° C. in the presence of inhibitor and of dithiothreitol (DTT, 10^−5 M). The substrate alanyl-amido-methylcoumarin (Ala-AMC, 25 μM-Tris HCl 50 mM, pH 7.4) is added and the incubation is continued for 15 minutes at 37° C. The release of AMC is measured by fluorimetry.

Structure (SMILES)	melting point [°C]	Ki [1] [nM]
Br.NC(CCCOc1ccc(Cc2ccccc2)cc1)C(=O)O (racemic)	199	
Br.NC(CCCOc1ccc(Oc2ccccc2)cc1)C(=O)O (racemic)	162	
Br.NC(CCCCOc1ccc(-c2ccccc2)cc1)C(=O)O (racemic)	185	
NC(CCCCOc1ccc(Cc2ccccc2)cc1)C(=O)O (racemic) [compound 51, 2-(RS)-amino-6-(4-benzylphenoxy)hexanoic acid hydrobromide]		32

More lines, now with the values ahead:

melting point [°C]	Ki [1] [nM]	Structure (SMILES)
100		Br.NC(CCCCCOc1ccc(Cc2ccccc2)cc1)C(=O)O (racemic)
135		Br.CCCCCCOc1ccc(OCCCCC(N)C(=O)O)cc1 (racemic)
120		Br.NC(CCCCCCOc1ccc(Cc2ccccc2)cc1)C(=O)O (racemic)
130		Br.NC(CCCCOc1ccc(Oc2ccccc2)cc1)C(=O)O (racemic)

Reference: patent US7094773B2, “LTA4 hydrolase inhibitors” (Institut National de la Santa et de la rescherche Medicale …, priority 1999, dated 2006)
